24 compounds from ChEMBL document CHEMBL1201862, “PubChem BioAssay data set” (2004) can be followed below.

As a reminder, the IC50 is the point on the concentration scale where inhibition reaches its midpoint. What is called EC50 is the concentration giving half of the maximal effect. Broadly, the AC50 is the concentration giving half of the maximal activity seen. The term CC50 denotes the concentration at which the toxic effect on the cells reaches its halfway point.

The source made the active and inactive calls.

The nature of assay [1]: nonselective StAR promoter luciferase inhibitors – cell-based, luminescence, luciferase reporter, counter-screen for LRH-1 inverse agonist project, dose response (AID 651969). The format is functional.
The target of assay [2] is Steroidogenic factor 1 (Homo sapiens, UniProt Q13285). Nature of the assay: Counterscreen for inverse agonists of the liver receptor homolog-1 (LRH-1; NR5A2): Luminescence-based cell-based high throughput dose response assay to identify inverse agonists of the Steroidogenic Factor 1 Nuclear Receptor (SF1; NR5A1). Type of assay: functional. (In general: Counterscreens check selectivity or assay interference.)
Chain of Steroidogenic factor 1 (Q13285 whole entry): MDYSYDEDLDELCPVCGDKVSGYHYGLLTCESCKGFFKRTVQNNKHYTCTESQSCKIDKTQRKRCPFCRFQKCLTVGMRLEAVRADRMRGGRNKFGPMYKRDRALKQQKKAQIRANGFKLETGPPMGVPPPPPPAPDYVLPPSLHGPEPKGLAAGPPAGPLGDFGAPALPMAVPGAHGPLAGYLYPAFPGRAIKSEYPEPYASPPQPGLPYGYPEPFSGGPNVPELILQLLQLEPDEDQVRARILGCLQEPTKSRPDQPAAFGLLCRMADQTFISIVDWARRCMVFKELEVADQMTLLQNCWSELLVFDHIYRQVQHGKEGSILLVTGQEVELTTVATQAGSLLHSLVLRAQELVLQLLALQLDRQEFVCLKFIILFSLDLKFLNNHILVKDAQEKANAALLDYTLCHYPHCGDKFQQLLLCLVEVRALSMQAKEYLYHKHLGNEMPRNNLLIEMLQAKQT

In assay [3] the target is Nuclear receptor subfamily 5 group A member 2 (Homo sapiens, UniProt O00482). The format is functional, cell-based.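 Note: HEK293T cells transfected with LRH-1 and a StAR promoter luciferase reporter; potency for inhibitors that lower LRH-1 driven reporter light.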
Chain of Nuclear receptor subfamily 5 group A member 2 (O00482 whole entry): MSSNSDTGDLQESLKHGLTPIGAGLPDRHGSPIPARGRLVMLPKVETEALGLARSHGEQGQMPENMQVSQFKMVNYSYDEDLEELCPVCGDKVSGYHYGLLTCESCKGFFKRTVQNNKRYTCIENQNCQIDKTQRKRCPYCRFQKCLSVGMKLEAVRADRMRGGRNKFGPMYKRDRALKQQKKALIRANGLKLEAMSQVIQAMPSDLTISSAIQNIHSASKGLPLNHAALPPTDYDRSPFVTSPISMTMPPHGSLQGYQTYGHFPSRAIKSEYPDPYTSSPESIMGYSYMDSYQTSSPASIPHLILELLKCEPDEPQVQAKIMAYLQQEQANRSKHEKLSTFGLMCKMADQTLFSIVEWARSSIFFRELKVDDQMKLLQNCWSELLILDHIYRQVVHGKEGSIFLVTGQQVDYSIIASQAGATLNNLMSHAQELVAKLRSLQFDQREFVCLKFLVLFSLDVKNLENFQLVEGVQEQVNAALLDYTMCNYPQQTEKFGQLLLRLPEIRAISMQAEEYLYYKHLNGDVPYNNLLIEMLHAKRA
A short description of assay [4]: cells. Type of assay: functional, cell-based.
The nature of assay [5]: cells. The format is functional, cell-based. This is another data set of the same source.
Assay [6] addresses T1, Histone-lysine N-methyltransferase NSD2 (Homo sapiens, UniProt O96028).
T1 sequence (O96028 whole entry): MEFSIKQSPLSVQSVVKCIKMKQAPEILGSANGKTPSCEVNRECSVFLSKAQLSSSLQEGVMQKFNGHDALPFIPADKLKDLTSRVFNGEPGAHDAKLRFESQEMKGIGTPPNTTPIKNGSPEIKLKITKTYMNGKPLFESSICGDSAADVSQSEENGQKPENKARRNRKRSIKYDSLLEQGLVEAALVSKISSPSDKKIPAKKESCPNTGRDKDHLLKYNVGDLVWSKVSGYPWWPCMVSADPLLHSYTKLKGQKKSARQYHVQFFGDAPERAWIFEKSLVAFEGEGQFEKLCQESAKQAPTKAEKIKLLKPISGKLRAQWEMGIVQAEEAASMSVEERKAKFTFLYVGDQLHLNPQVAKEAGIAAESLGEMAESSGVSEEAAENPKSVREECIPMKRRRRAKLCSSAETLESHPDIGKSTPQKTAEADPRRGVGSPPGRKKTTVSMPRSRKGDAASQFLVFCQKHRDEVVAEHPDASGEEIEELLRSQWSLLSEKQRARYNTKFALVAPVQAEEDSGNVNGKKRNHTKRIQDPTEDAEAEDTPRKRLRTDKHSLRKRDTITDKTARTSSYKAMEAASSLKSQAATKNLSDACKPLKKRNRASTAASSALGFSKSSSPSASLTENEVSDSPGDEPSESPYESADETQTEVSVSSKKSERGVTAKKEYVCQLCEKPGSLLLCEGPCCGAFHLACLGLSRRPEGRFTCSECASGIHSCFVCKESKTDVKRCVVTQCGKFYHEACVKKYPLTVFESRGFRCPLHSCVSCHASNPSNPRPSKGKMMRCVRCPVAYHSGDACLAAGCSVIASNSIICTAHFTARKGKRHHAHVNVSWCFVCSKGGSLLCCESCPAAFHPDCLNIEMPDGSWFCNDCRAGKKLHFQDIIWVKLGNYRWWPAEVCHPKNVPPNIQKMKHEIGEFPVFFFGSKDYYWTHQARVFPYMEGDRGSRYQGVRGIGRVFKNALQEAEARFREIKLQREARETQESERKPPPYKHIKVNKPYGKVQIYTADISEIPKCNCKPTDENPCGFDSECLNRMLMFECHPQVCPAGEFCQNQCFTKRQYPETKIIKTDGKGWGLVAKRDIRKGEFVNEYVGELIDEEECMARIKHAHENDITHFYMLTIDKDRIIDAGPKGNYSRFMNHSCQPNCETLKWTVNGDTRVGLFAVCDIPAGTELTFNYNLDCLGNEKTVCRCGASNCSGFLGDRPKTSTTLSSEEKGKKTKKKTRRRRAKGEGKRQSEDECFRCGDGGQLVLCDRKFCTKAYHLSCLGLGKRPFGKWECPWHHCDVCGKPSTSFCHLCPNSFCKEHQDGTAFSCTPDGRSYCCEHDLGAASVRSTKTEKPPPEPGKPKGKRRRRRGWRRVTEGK
The format is biochemical.

Assay [7] has as its system Streptococcus. Nature of the assay: GAS UMAA2166 growth inhibition – luminescence, BacTiterGlo, counter-screen for streptokinase expression inhibitor project, dose response (AID 1915).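 Note: potency for reduction of bacterial viability or growth.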 Type of assay: functional, organism-based.
For assay [8], the target named is T2, Streptokinase A (Streptococcus pyogenes serotype M1, UniProt P10520).
T2 sequence (P10520 whole entry): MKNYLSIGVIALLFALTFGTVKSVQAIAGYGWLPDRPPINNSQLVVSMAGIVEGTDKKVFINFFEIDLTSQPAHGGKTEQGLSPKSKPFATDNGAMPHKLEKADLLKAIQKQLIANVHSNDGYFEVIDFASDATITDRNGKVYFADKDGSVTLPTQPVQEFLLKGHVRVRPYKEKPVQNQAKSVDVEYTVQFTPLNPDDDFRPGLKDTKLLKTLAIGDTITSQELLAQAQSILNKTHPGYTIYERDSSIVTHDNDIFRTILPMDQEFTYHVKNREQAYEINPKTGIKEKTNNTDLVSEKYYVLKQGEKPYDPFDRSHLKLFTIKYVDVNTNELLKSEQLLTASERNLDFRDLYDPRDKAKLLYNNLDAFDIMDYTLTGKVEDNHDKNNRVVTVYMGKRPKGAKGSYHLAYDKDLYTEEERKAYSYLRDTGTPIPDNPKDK
Nature of the assay: viability-normalized secreted streptokinase activity reduction – plasminogen activation absorbance, OD405, dose response (AID 1914).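 Note: secreted streptokinase activity via plasminogen activation per viability signal from cell pellet.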 Type of assay: functional, Streptococcus pyogenes M1 GAS.

Assay [9] is described as follows: A Cell Based Secondary Assay To Explore Cytotoxicity of Compounds that Sensitize Mycobacterium Tuberculosis to Beta-Lactam Antibiotics. Type of assay: functional.
Assay [10] is described as follows: HIV-1 AD8 envelope cell-cell fusion blockers – cherry-pick, dose response (AID 652062).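 Note: luciferase signal from cell-cell fusion driven by HIV-1 clade B AD8 Env; potency is for inhibitors of fusion seen as a drop in luminescence.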 The format is functional, cell-based.
Assay [11] can be described thus: A549 cell cytotoxicity, dose response, cytotoxicity control, plate reader, cherry-pick, antagonist series (AID 743412). The format is functional, cell-based.
A short description of assay [12]: intracellular Trypanosoma cruzi inhibitors in host cells – cell-based, plate reader, cherry-pick samples, set 3, dose response (AID 651818).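 Note: compounds incubated with infected cells for about four days.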 Type of assay: functional.
Assay [13] is described as follows: blockers of HIV-1 envelope-mediated cell-cell fusion – cherry-pick, dose response (AID 652057). The format is functional, cell-based.
Assay [14] in a line: blockers of HIV-1 ZM109 envelope-driven cell-cell fusion – HeLa effector, CEM target cells, luciferase, cherry-pick, dose response (AID 652058).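 Note: luciferase signal from HIV-1 Env mediated cell-cell fusion of effector and target cells.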 Type of assay: functional, cell-based.
The target of assay [15] is Nonstructural protein 1 (Influenza A virus, UniProt Q194T2). The format is functional, Influenza A virus (A/California/07/2009(H1N1)).
Chain of Nonstructural protein 1 (Q194T2 whole entry): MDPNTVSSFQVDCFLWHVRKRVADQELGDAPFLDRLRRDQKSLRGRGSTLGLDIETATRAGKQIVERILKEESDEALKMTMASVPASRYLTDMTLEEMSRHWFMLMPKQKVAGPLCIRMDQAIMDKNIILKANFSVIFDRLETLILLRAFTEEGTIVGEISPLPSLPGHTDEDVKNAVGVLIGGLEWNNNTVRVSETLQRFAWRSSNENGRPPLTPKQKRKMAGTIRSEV
A short description of assay [16]: growth inhibition of PfATP4-mutant resistant parasites – NITD609-resistant line, SYBR Green, dry powder, dose response (AID 1159571).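 Note: parasites synchronized at ring stage by sorbitol before testing.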 The format is functional, cell-based.
Assay [17] in a line: Dd2 malaria parasite growth inhibition potency – SYBR Green, dry powder samples, dose response (AID 1159566).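 Note: potency for growth inhibition with lower SYBR green DNA signal.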 The format is functional, cell-based.
The nature of assay [18]: P. falciparum Dd2 growth inhibitors, dose response, SYBR Green, cherry-picked samples (AID 1159567). The format is functional, cell-based.
The nature of assay [19]: growth inhibition of yeast DHODH-expressing 3D7 parasites – SYBR Green, dry powder samples, dose response (AID 1159570).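 Note: parasite growth measured after 72 hours of compound exposure.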 Type of assay: functional, cell-based.

Turning to `CCCOc1ccc(NC(=O)CC2C(=O)N(C)C(=S)N2Cc2ccc3c(c2)OCO3)cc1` (configuration not stated), the IC50 in assay [1] was 35.9 µM (inactive); in [2], 2.03 µM (active); in assay [3] it was 1.67 µM (active).

As for `Nc1nc(SCC(=O)N2CCCC2)nc(O)c1-c1ccccc1`, the 50% effective concentration (EC50) in assay [4] and in [5] was > 350 µM (not active) throughout.

As for `Nc1c(C(=O)OCC2CCCO2)c2nc3ccccc3nc2n1C1CCCCC1` (configuration not stated), in assay [6], the AC50 is 10 µM (active).

Take `FC(F)Oc1ccccc1C1CC(c2ccc(Br)s2)Nc2ncnn21` (configuration not stated): the EC50 in assay [7] and in assay [8] was > 150 µM (not active) throughout. For the same compound, the CC50 in [9] is > 40 µM (active).

`O=C(COC(=O)CCN1C(=O)C2CC=CCC2C1=O)NCCc1ccccc1` (configuration not stated): the values for the IC50 in assay [1], in assay [2] and in [3] were 35.9 µM (inactive), 25.8 µM (inactive) and 38 µM (inactive), respectively.

Take `COc1cc(C(=O)Nc2sc(C)c(C)c2C(=O)O)cc(OC)c1OC`: the EC50 in assay [4] and in assay [5] was > 350 µM (not active) each time.

In the case of `Cc1ccc(-n2nnnc2-c2cnn(-c3ccc(F)cc3)c2C(F)(F)F)cc1`, the AC50 in assay [10] was 33.9 µM (active).

For the compound `CCOC(=O)c1c(C)nc2sc(C(=O)Nc3ccccc3)c(N)c2c1-c1ccc(OC)cc1`, the 50% cytotoxic concentration (CC50) in [9] was 3.99 µM (active).

For `O=C(Nc1ccc(N2CCOCC2)c(S(=O)(=O)Nc2ccccc2Cl)c1)c1ccc(F)cc1`, the AC50 in [11] was > 52 µM (inactive).

In the case of `COc1ccc(CCNC(=O)CSc2nn3c(=O)c(C)nnc3s2)cc1OC`, the values for the IC50 in [1], in [2] and in assay [3] were 35.9 µM (inactive), 12 µM (inactive) and 35.9 µM (inactive), respectively.

Turning to `CC1(C)CN(c2cccc(C#N)c2)C1=O`, the AC50 in [6] was 10.7 µM (active).

For `CC(C)Oc1cccc(-c2cc(C(=O)NN3CCOCC3)c3ccccc3n2)c1`, the values for the IC50 in assay [1], in [2] and in assay [3] were 35.9 µM (inactive), 15.9 µM (inactive) and 35.9 µM (inactive), respectively.

As to `C[C@H](CO)N1C[C@H](C)[C@@H](CN(C)CC2CCCCC2)Oc2c(NC(=O)c3nc4ccccc4s3)cccc2C1=O`, the AC50 in assay [12] was 1.21 µM (active).

As to `COc1ccc(NC(=O)Nc2ccc3c(c2)C(=O)N([C@H](C)CO)C[C@H](C)[C@H](CN(C)Cc2ccc(Cl)c(Cl)c2)OCCCC[C@@H](C)O3)cc1`, the AC50 in [12] was 7.11 µM (active).

Consider `C[C@H](CO)N1C[C@H](C)[C@H](CN(C)Cc2ccc(C(=O)Nc3ccccc3N)cc2)Oc2ccc(NC(=O)Nc3ccc4c(c3)OCO4)cc2CC1=O`, for which the AC50 in [12] is 2.08 µM (active).

In the case of `C[C@@H]1CCCCO[C@@H](CN(C)CC2CCCCC2)[C@@H](C)CN([C@H](C)CO)C(=O)c2cc(NC(=O)Nc3ccccc3)ccc2O1`, the AC50 in assay [12] is 2.55 µM (active).

In the case of `COc1ccc(CCNC(=O)CN2C(=O)NC3(CCCCC3C)C2=O)cc1` (configuration not stated), the IC50 was 35.9 µM (inactive) in assay [1], 4.78 µM (active) in assay [2] and 1.31 µM (active) in [3].

Consider `C[C@@H]1CN([C@H](C)CO)C(=O)c2cccc(N(C)C)c2O[C@H]1CN(C)Cc1ccc(Oc2ccccc2)cc1`, for which, in assay [12], the AC50 is 2.51 µM (active).

As to `COc1cccc(S(=O)(=O)N(C)C[C@H]2Oc3cc(C#CCC(C)C)ccc3S(=O)(=O)N([C@H](C)CO)C[C@H]2C)c1`, the AC50 in assay [10] was 17.9 µM (active); in assay [13] it was 34.5 µM (active).

Consider `Cc1ccc(S(=O)(=O)Nc2cccc3c2O[C@H](CN(C)Cc2ccc(Cl)c(Cl)c2)[C@H](C)CN([C@H](C)CO)C3=O)cc1`, for which the results for the concentration at half-maximal activity (AC50) in [10], in [14] and in assay [13] were 1.37 µM (active), 0.308 µM (active) and < 0.26 µM (active), respectively.

Turning to `O=C(CN1CCCC1)N/N=C/c1c(O)ccc2ccccc12`, the values for the EC50 in assay [4] and in [5] were > 350 µM (not active) and 8.38 µM (active), respectively. The IC50 in assay [15] was 9.17 µM (active).

As for `CO[C@@H]1CN(C)C(=O)c2ccc(NC(=O)c3nc4ccccc4s3)cc2OC[C@H](C)N(Cc2ccncc2)C[C@@H]1C`, the AC50 in assay [16] was 0.725 µM (active); in assay [17] it was 0.792 µM (active); in [18], 0.985 µM (active); in [19], 1.86 µM (active).

Take `COc1ccc2c3c(n(C)c2c1)[C@@H](CO)N(C(=O)C1CC1)CC31CCN(C(=O)Nc2cccc(F)c2)CC1`: the AC50 in [16] was 0.441 µM (active); in assay [17] it was 0.343 µM (active); in [18], 0.506 µM (active); in assay [19], 0.171 µM (active).

For the compound `Cc1ccc(S(=O)(=O)N(C)C[C@H]2OCc3ccccc3-c3c(n(C)c4ccccc34)C(=O)N([C@H](C)CO)C[C@@H]2C)cc1`, the AC50 in assay [16] was 1.08 µM (active); in assay [17] it was 1.47 µM (active); in assay [18], 2.36 µM (active); in [19], 1.27 µM (active).
